# Key:
# mice = assay: mouse acetic acid writhing test (antinociceptive activity); format: in vivo
# μ opioid receptor = μ opioid receptor (Cavia porcellus, UniProt A0ACM8Q262); format: binding, guinea pig; conditions: read-out: [3H] DAMGO (μ)
# Chain of μ opioid receptor (A0ACM8Q262 1-400): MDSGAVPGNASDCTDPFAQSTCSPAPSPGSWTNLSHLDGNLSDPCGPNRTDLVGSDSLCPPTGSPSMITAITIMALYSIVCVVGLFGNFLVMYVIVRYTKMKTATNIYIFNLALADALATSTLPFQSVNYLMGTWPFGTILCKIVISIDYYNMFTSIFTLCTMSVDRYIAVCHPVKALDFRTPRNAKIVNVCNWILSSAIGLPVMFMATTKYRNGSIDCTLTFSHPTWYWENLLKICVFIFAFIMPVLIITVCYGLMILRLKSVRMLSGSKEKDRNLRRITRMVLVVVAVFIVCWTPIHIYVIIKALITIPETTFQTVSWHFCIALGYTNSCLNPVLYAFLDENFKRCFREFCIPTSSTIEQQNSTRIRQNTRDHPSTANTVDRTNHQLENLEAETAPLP
substance,measurement,setting,value
"Cyclazocine [(±)-Cyclazocine, reference compound]","duration of action (antinociception, mouse writhing test)",mice; 1.0 mg/kg i.p.,ca. 2 hr
same,ED50 in the mouse acetic acid writhing test,mice; administered i.c.v.,2.9 nmol
same,Ki,μ opioid receptor,0.32 ± 0.02 nM

# Source: patent US9932349B2 (priority 2000, dated 2018)
